Measurements taken from patent US20220389007A1, “INHIBITORS OF HUMAN IMMUNODEFICIENCY VIRUS REPLICATION” (VIIV HEALTHCARE UK (No. 5) LIMITED, priority 2019, published 2022).
pEC50: −log10 of the molar value.

What was measured:
[1] = test system: recombinant NL4-3 virus; assay: HIV cell culture assay (antiviral activity, luciferase readout); format: cell-based; conditions: Human immunodeficiency virus 1, NL43, MT2, MT-2 cells infected for 4-5 days with recombinant NL4-3 virus carrying Renilla luciferase
Protocol: HIV cell culture assay—MT-2 cells, 293T cells and the proviral DNA clone of NL4-3 virus were obtained from the NIH AIDS Research and Reference Reagent Program. MT-2 cells were propagated in RPMI 1640 media supplemented with 10% heat inactivated fetal bovine serum (FBS), […]. The 293T cells were propagated in DMEM media supplemented with 10% heat inactivated FBS, […]. A recombinant NL4-3 proviral clone, in which a section of the nef gene was replaced with the Renilla luciferase gene, was used to make the reference virus used in these studies. The recombinant virus was prepared through transfection of the recombinant NL4-3 proviral clone into 293T cells using Transit-293 Transfection Reagent from Mirus Bio LLC (Madison, WI). Supernatent was harvested after 2-3 days and the amount of virus present was titered in MT-2 cells using luciferase enzyme activity as a marker by measuring luciferase enzyme activity. Luciferase was quantitated using the EnduRen Live Cell Substrate from Promega (Madison, Wis.). Antiviral activities of compounds toward the recombinant virus were quantified by measuring luciferase activity in MT-2 cells infected for 4-5 days with the recombinant virus in the presence of serial dilutions of the compound.
The 50% effective concentration (EC50) was calculated by using the exponential form of the median effect equation where (Fa)=1/[1+(ED50/drug conc.)m] (Johnson VA, Byington RT. Infectivity Assay. In Techniques in HIV Research. ed. Aldovini A, Walker BD. 71-76. New York: Stockton Press. 1990). The 50% inhibitory concentration (EC50) was calculated by using the exponential form of the median effect equation where percent inhibition=1/[1+(EC50/drug concentration)m], where m is a parameter that reflects the slope of the concentration-response curve.

[2] = Compound cytotoxicity, XTT-based colorimetric assay; format: cell-based; conditions: human; uninfected MT2 cells, day 4, XTT assay
Protocol: Compound cytotoxicity and the corresponding CC50 values were determined using the same protocol as described in the antiviral assay except that uninfected cells were used. Cytotoxicity was assessed on day 4 in uninfected MT2 cells by using a XTT (2,3-bis[2-Methoxy-4-nitro-5-sulfophenyl]-2H-tetrazolium-5-carboxyanilide inner salt)-based colorimetric assay (Sigma-Aldrich, St Louis, Mo.).

Cn1nc(NS(C)(=O)=O)c2c(Cl)ccc(-n3c([C@H](Cc4cc(F)cc(F)c4)NC(=O)Cn4nc(C(F)F)c5c4C(F)(F)[C@@H]4C[C@H]54)nc4nc(-c5nc(C(F)(F)F)ccc5F)ccc4c3=O)c21 (atropisomer, axis not shown; (P)) [Example 36, N-((S)-1-((3P)-3-(4-chloro-1-methyl-3-(methylsulfonamido)-1H-indazol-7-yl)-7-(3-fluoro-6-(trifluoromethyl)pyridin-2-yl)-4-oxo-3,4-dihydropyrido[2,3-d]pyrimidin-2-yl)-2-(3,5-difluorophenyl)ethyl)-2-((3bS,4aR)-3-(difluoromethyl)-5,5-difluoro-3b,4,4a,5-tetrahydro-1H-cyclopropa[3,4]cyclopenta[1,2-c]pyrazol-1-yl)acetamide]
pEC50 [1]: 10.35 | CC50 at 4 day [2]: > 100 nM

COc1cncc(-c2ccc3c(=O)n(-c4ccc(Cl)c5c(NS(C)(=O)=O)nn(C)c45)c([C@H](Cc4cc(F)cc(F)c4)NC(=O)Cn4nc(C(F)F)c5c4C(F)(F)[C@@H]4C[C@H]54)nc3n2)n1 (atropisomer, axis not shown; (P)) [Example 54, N-((S)-1-((3P)-3-(4-chloro-1-methyl-3-(methylsulfonamido)-1H-indazol-7-yl)-7-(6-methoxypyrazin-2-yl)-4-oxo-3,4-dihydropyrido[2,3-d]pyrimidin-2-yl)-2-(3,5-difluorophenyl)ethyl)-2-((3bS,4aR)-3-(difluoromethyl)-5,5-difluoro-3b,4,4a,5-tetrahydro-1H-cyclopropa[3,4]cyclopenta[1,2-c]pyrazol-1-yl)acetamide]
pEC50 [1]: 10.41 | CC50 at 4 day [2]: > 100 nM

Cn1nc(NS(C)(=O)=O)c2c(Cl)ccc(-n3c([C@H](Cc4cc(F)cc(F)c4)NC(=O)Cn4nc(C(F)F)c5c4C(F)(F)[C@@H]4C[C@H]54)nc4nc(-c5cc(C(F)(F)F)[nH]n5)ccc4c3=O)c21 (atropisomer, axis not shown; (P)) [Example 90, N-((S)-1-((3P)-3-(4-chloro-1-methyl-3-(methylsulfonamido)-1H-indazol-7-yl)-4-oxo-7-(5-(trifluoromethyl)-1H-pyrazol-3-yl)-3,4-dihydropyrido[2,3-d]pyrimidin-2-yl)-2-(3,5-difluorophenyl)ethyl)-2-((3bS,4aR)-3-(difluoromethyl)-5,5-difluoro-3b,4,4a,5-tetrahydro-1H-cyclopropa[3,4]cyclopenta[1,2-c]pyrazol-1-yl)acetamide]
pEC50 [1]: 10.01 | CC50 at 4 day [2]: > 100 nM

CCC(F)(F)Cn1ccc(-c2ccc3c(=O)n(-c4ccc(Cl)c5c(NS(C)(=O)=O)nn(C)c45)c([C@H](Cc4cc(F)cc(F)c4)NC(=O)Cn4nc(C(F)F)c5c4C(F)(F)[C@@H]4C[C@H]54)nc3n2)n1 (atropisomer, axis not shown; (P)) [Example 86, N-((S)-1-((3P)-3-(4-chloro-1-methyl-3-(methylsulfonamido)-1H-indazol-7-yl)-7-(1-(2,2-difluorobutyl)-1H-pyrazol-3-yl)-4-oxo-3,4-dihydropyrido[2,3-d]pyrimidin-2-yl)-2-(3,5-difluorophenyl)ethyl)-2-((3bS,4aR)-3-(difluoromethyl)-5,5-difluoro-3b,4,4a,5-tetrahydro-1H-cyclopropa[3,4]cyclopenta[1,2-c]pyrazol-1-yl)acetamide]
pEC50 [1]: 10.08 | CC50 at 4 day [2]: > 100 nM

COc1ccnc(-c2ccc3c(=O)n(-c4ccc(Cl)c5c(NS(C)(=O)=O)nn(C)c45)c([C@H](Cc4cc(F)cc(F)c4)NC(=O)Cn4nc(C(F)F)c5c4C(F)(F)[C@@H]4C[C@H]54)nc3n2)n1 (atropisomer, axis not shown; (P)) [Example 56, N-((S)-1-((3P)-3-(4-chloro-1-methyl-3-(methylsulfonamido)-1H-indazol-7-yl)-7-(4-methoxypyrimidin-2-yl)-4-oxo-3,4-dihydropyrido[2,3-d]pyrimidin-2-yl)-2-(3,5-difluorophenyl)ethyl)-2-((3bS,4aR)-3-(difluoromethyl)-5,5-difluoro-3b,4,4a,5-tetrahydro-1H-cyclopropa[3,4]cyclopenta[1,2-c]pyrazol-1-yl)acetamide]
pEC50 [1]: 10.29 | CC50 at 4 day [2]: > 100 nM

Cc1ccnc(-c2ccc3c(=O)n(-c4ccc(Cl)c5c(NS(C)(=O)=O)nn(C)c45)c([C@H](Cc4cc(F)cc(F)c4)NC(=O)Cn4nc(C(F)F)c5c4C(F)(F)[C@@H]4C[C@H]54)nc3n2)n1 (atropisomer, axis not shown; (P)) [Example 10, N-((S)-1-((3P)-3-(4-chloro-1-methyl-3-(methylsulfonamido)-1H-indazol-7-yl)-7-(4-methylpyrimidin-2-yl)-4-oxo-3,4-dihydropyrido[2,3-d]pyrimidin-2-yl)-2-(3,5-difluorophenyl)ethyl)-2-((3bS,4aR)-3-(difluoromethyl)-5,5-difluoro-3b,4,4a,5-tetrahydro-1H-cyclopropa[3,4]cyclopenta[1,2-c]pyrazol-1-yl)acetamide]
pEC50 [1]: 10.52 | CC50 at 4 day [2]: > 100 nM

Cn1nc(NS(C)(=O)=O)c2c(Cl)ccc(-n3c([C@H](Cc4cc(F)cc(F)c4)NC(=O)Cn4nc(C(F)F)c5c4C(F)(F)[C@@H]4C[C@H]54)nc4nc(-c5ccn(CCC(F)(F)F)n5)ccc4c3=O)c21 (atropisomer, axis not shown; (P)) [Example 89, N-((S)-1-((3P)-3-(4-chloro-1-methyl-3-(methylsulfonamido)-1H-indazol-7-yl)-4-oxo-7-(1-(3,3,3-trifluoropropyl)-1H-pyrazol-3-yl)-3,4-dihydropyrido[2,3-d]pyrimidin-2-yl)-2-(3,5-difluorophenyl)ethyl)-2-((3bS,4aR)-3-(difluoromethyl)-5,5-difluoro-3b,4,4a,5-tetrahydro-1H-cyclopropa[3,4]cyclopenta[1,2-c]pyrazol-1-yl)acetamide]
pEC50 [1]: 10.25 | CC50 at 4 day [2]: > 100 nM

Cn1nc(NS(C)(=O)=O)c2c(Cl)ccc(-n3c([C@H](Cc4cc(F)cc(F)c4)NC(=O)Cn4nc(C(F)F)c5c4C(F)(F)[C@@H]4C[C@H]54)nc4nc(-c5ccn(CC(F)(F)C(F)(F)F)n5)ccc4c3=O)c21 (atropisomer, axis not shown; (P)) [Example 88, N-((S)-1-((3P)-3-(4-chloro-1-methyl-3-(methylsulfonamido)-1H-indazol-7-yl)-4-oxo-7-(1-(2,2,3,3,3-pentafluoropropyl)-1H-pyrazol-3-yl)-3,4-dihydropyrido[2,3-d]pyrimidin-2-yl)-2-(3,5-difluorophenyl)ethyl)-2-((3bS,4aR)-3-(difluoromethyl)-5,5-difluoro-3b,4,4a,5-tetrahydro-1H-cyclopropa[3,4]cyclopenta[1,2-c]pyrazol-1-yl)acetamide]
pEC50 [1]: 10.10 | CC50 at 4 day [2]: > 100 nM

Cn1nc(NS(C)(=O)=O)c2c(Cl)ccc(-n3c([C@H](Cc4cc(F)cc(F)c4)NC(=O)Cn4nc(C(F)F)c5c4C(F)(F)[C@@H]4C[C@H]54)nc4nc(-c5cnc(C(C)(F)F)s5)ccc4c3=O)c21 (atropisomer, axis not shown; (P)) [Example 99, N-((S)-1-((3P)-3-(4-chloro-1-methyl-3-(methylsulfonamido)-1H-indazol-7-yl)-7-(2-(1,1-difluoroethyl)thiazol-5-yl)-4-oxo-3,4-dihydropyrido[2,3-d]pyrimidin-2-yl)-2-(3,5-difluorophenyl)ethyl)-2-((3bS,4aR)-3-(difluoromethyl)-5,5-difluoro-3b,4,4a,5-tetrahydro-1H-cyclopropa[3,4]cyclopenta[1,2-c]pyrazol-1-yl)acetamide]
pEC50 [1]: 10.21 | CC50 at 4 day [2]: > 100 nM

Cn1nc(NS(C)(=O)=O)c2c(Cl)ccc(-n3c([C@H](Cc4cc(F)cc(F)c4)NC(=O)Cn4nc(C(F)F)c5c4C(F)(F)[C@@H]4C[C@H]54)nc4nc(-c5ccc(S(C)(=O)=O)cc5F)ccc4c3=O)c21 (atropisomer, axis not shown; (P)) [Example 32, N-((S)-1-((3P)-3-(4-chloro-1-methyl-3-(methylsulfonamido)-1H-indazol-7-yl)-7-(2-fluoro-4-(methylsulfonyl)phenyl)-4-oxo-3,4-dihydropyrido[2,3-d]pyrimidin-2-yl)-2-(3,5-difluorophenyl)ethyl)-2-((3bS,4aR)-3-(difluoromethyl)-5,5-difluoro-3b,4,4a,5-tetrahydro-1H-cyclopropa[3,4]cyclopenta[1,2-c]pyrazol-1-yl)acetamide]
pEC50 [1]: 10.12 | CC50 at 4 day [2]: > 100 nM
